Usually GI50 stands for the concentration that inhibits growth by half. Read a low GI50 as more potent growth inhibition. As a reminder, the DC50 is the concentration giving 50% degradation. Read a low DC50 as degradation at low concentration.

In patent US12606533B2, “3-phenylpropylamine derivative” (DAIICHI SANKYO COMPANY, LIMITED, priority 2023, dated 2026) one finds GI50 and DC50 data, which are given here for twelve compounds.

One assay relates to NCI-H295R cells. The assay is described as follows: Proliferation inhibitory action on NCI-H295R (CellTiter-Glo, 7 days). It is filed as cell-based, human. The settings on record: Homo sapiens, NCI-H295R, 168 h. The procedure:
DMSO solutions of each compound were serially diluted with DMSO using a D300e Digital Dispenser (TECAN), and added to a 384-well plate (Thermo Fisher Scientific Inc.). NCI-H295R cells were seeded in a 384-well plate at 2×10^3 cells/40 μL/well and cultured for 7 days in a 37° C., 5% CO2 incubator. […] On the first day of culture (day 0) and the seventh day of culture (day 7), 10 μL/well of CellTiter-Glo (registered trademark) 2.0 Assay (Promega) was added, and the luminescence signal was detected using a multimode plate reader (EnVision, PerkinElmer). The cell proliferation rate was calculated from the luminescence amount on the day of compound addition (CO), the luminescence amount of the compound-free group after 7 days of culture (C7), and the luminescence amount of the compound-added group (T7), based on the following formula.

For another assay, the target named is T1, SF-1 (Homo sapiens, UniProt Q13285).
T1 construct: NCI-H295R SF-1-HiBiT cells with HiBiT tag knocked in at the endogenous SF1 locus; host or cells: NCI-H295R SF-1-HiBiT (knock-in at endogenous locus)
The assay is described as follows: SF1 degradation induction in NCI-H295R SF-1-HiBiT cells (HiBiT DC50). It is filed as cell-based. The settings on record: 24 hr, concentration that induces 50% degradation of SF-1. Here is the method: NCI-H295R SF-1-HiBiT cells were seeded in a 384-well plate (Thermo Fisher Scientific Inc.) at 1×10^4 cells/50 μL/well and cultured at 37° C. in a 5% CO2 incubator for 24 hr. DMSO solutions of each compound were serially diluted with DMSO using a D300e Digital Dispenser (TECAN), added to a 384-well plate, and cultured in a 5% CO2 incubator at 37° C. for 24 hr. […] After completion of culture, the medium was discarded, and Nano-Glo (registered trade mark) HiBiT Lytic Detection System (Promega, Cat. No. N3040) was added at 20 μL/well and stirred with a plate mixer. Luminescence signals were then detected using a multimode plate reader (EnVision Xcite, PerkinElmer). The SF-1 protein degradation rate was calculated from the amount of luminescence (C) in the compound-free group and the amount of luminescence (T) in the compound-added group, based on the following formula.
The obtained data was analyzed using GraphPad Prism9 (GraphPad Software Inc.) or Genedata Screener (Genedata AG) to calculate the concentration that induces 50% degradation of SF-1 (DC50 value).

Take `COc1ccc([C@]2(CCN(Cc3ccc(C4=CC[C@H](CN5CCN(C(=O)c6ccc7c8c6NCCn8c(=O)n7[C@H]6CCC(=O)NC6=O)CC5)CC4)cc3)CC(C)(C)C(F)(F)F)CCOC(C)(C)C2)cc1` [CE1, (3S)-3-{7-[(4-{[(4R)-4′-{[{2-[(4R)-4-(4-Methoxyphenyl)-2,2-dimethyltetrahydro-2H-pyran-4-yl]ethyl)(3,3,3-trifluoro-2,2-dimethylpropyl)amino]methyl}-2,3,4,5-tetrahydro[biphenyl]-4-yl]methyl}piperazin-1-yl)carbonyl]-2-oxo-5,6-dihydro-4H-imidazo[1,5,4-de]quinoxalin-1(2H)-yl}piperidine-2,6-dione]: in the assay with NCI-H295R cells, halving of growth (GI50) required 70 nM. Further, half-maximal degradation at SF-1 (DC50) was put at 4.3 nM.

For `COc1ccc([C@]2(CCN(Cc3ccc4c(cnn4C4CC5(CCN(CC(=O)Nc6ccc7c(c6)n(C)c(=O)n7C6CCC(=O)NC6=O)CC5)C4)c3)CC(C)(C)C(F)(F)F)CCOC(C)(C)C2)cc1` (stereo partly drawn) [BA6, N-[1-(2,6-Dioxopiperidin-3-yl)-3-methyl-2-oxo-2,3-dihydro-1H-benzimidazol-5-yl]-2-[2-(5-{[{2-[(4R)-4-(4-methoxyphenyl)-2,2-dimethyltetrahydro-2H-pyran-4-yl]ethyl)(3,3,3-trifluoro-2,2-dimethylpropyl)amino]methyl}-1H-indazol-1-yl)-7-azaspiro[3.5]nonan-7-yl]acetamide], the GI50 in the assay with NCI-H295R cells came out at 23 nM. Further, at SF-1, half-maximal degradation (DC50) was put at 4.9 nM.

In turn, `COc1ccc([C@]2(CCN(Cc3ccc(C4=CC[C@H](C(=O)N5CCC(Nc6ccc7c(c6)C(=O)N(C6CCC(=O)NC6=O)C7)CC5)CC4)cc3)CC(C)(C)C(F)(F)F)CCOC(C)(C)C2)cc1` (stereo partly drawn) [BS3, 3-{6-[(1-{[(4R)-4′-{[{2-[(4R)-4-(4-Methoxyphenyl)-2,2-dimethyltetrahydro-2H-pyran-4-yl]ethyl)(3,3,3-trifluoro-2,2-dimethylpropyl)amino]methyl}-2,3,4,5-tetrahydro[biphenyl]-4-yl]carbonyl}piperidin-4-yl)amino]-1-oxo-1,3-dihydro-2H-isoindol-2-yl}piperidine-2,6-dione] had a GI50 with NCI-H295R cells of 70 nM. For the same compound, the DC50 on SF-1 came to 14 nM.

Regarding `COc1ccc([C@]2(CCN(Cc3ccc(OC4CCN(CC(=O)Nc5cccc6c5n(C)c(=O)n6C5CCC(=O)NC5=O)CC4)cc3)CC(C)(C)C(F)(F)F)CCOC(C)(C)C2)cc1` (stereo partly drawn) [Example Z8, N-[1-(2,6-Dioxopiperidin-3-yl)-3-methyl-2-oxo-2,3-dihydro-1H-benzimidazol-4-yl]-2-[4-(4-{[{2-[(4R)-4-(4-methoxyphenyl)-2,2-dimethyltetrahydro-2H-pyran-4-yl]ethyl)(3,3,3-trifluoro-2,2-dimethylpropyl)amino]methyl}phenoxy)piperidin-1-yl]acetamide], in the assay with NCI-H295R cells, halving of growth (GI50) required 43 nM. The compound also had a 50% degradation concentration (DC50) on SF-1 of 10 nM.

Compound `COc1ccc([C@]2(CCN(Cc3ccc(C4=CC[C@H](CN5CCN(C(=O)c6ccc7c(c6)n(C)c(=O)n7[C@@H]6CCC(=O)NC6=O)CC5)CC4)cc3)CC(C)(C)C(F)(F)F)CCOC(C)(C)C2)cc1` [AO7, (3R)-3-{5-[(4-{[(4R)-4′-{[{2-[(4R)-4-(4-Methoxyphenyl)-2,2-dimethyltetrahydro-2H-pyran-4-yl]ethyl}(3,3,3-trifluoro-2,2-dimethylpropyl)amino]methyl}-2,3,4,5-tetrahydro[biphenyl]-4-yl]methyl}piperazin-1-yl)carbonyl]-3-methyl-2-oxo-2,3-dihydro-1H-benzimidazol-1-yl}piperidine-2,6-dione] displayed a GI50 in the assay on NCI-H295R cells of 39 nM. Further, the DC50 at SF-1 worked out at 5.4 nM.

`Cn1c(=O)n(C2CCC(=O)NC2=O)c2ccc(C(=O)N3CCN(CC4CC=C(c5ccc(CN(CC[C@@]6(c7ccc(OC(F)F)cc7)CCOC(C)(C)C6)CC(C)(C)C(F)(F)F)cc5)CC4)CC3)cc21` (stereo partly drawn) [AM10, 3-[5-({4-[(4′-{[(2-{(4R)-4-[4-(Difluoromethoxy)phenyl]-2,2-dimethyltetrahydro-2H-pyran-4-yl}ethyl) (3,3,3-trifluoro-2,2-dimethylpropyl)amino]methyl}-2,3,4,5-tetrahydro[biphenyl]-4-yl)methyl]piperazin-1-yl}carbonyl)-3-methyl-2-oxo-2,3-dihydro-1H-benzimidazol-1-yl]piperidine-2,6-dione] registered a 50% growth inhibitory concentration (GI50) in the assay on NCI-H295R cells of 106 nM. Further, the half-maximal degradation concentration (DC50) on SF-1 was 7.3 nM.

The compound `COc1ccc([C@]2(CCN(CC3CC=C(c4ccc(NC(=O)C5CC(Nc6ccc7c(c6)n(C)c(=O)n7C6CCC(=O)NC6=O)C5)c(F)c4)CC3)CC(C)(C)C(F)(F)F)CCOC(C)(C)C2)cc1` (stereo partly drawn) [BE5, 3-{[1-(2,6-Dioxopiperidin-3-yl)-3-methyl-2-oxo-2,3-dihydro-1H-benzimidazol-5-yl]amino}-N-(3-fluoro-4′-{[{2-[(4R)-4-(4-methoxyphenyl)-2,2-dimethyltetrahydro-2H-pyran-4-yl]ethyl}(3,3,3-trifluoro-2,2-dimethylpropyl)amino]methyl}-2′,3′,4′,5′-tetrahydro[biphenyl]-4-yl)cyclobutanecarboxamide] came in with a GI50 with NCI-H295R cells of 124 nM. The same compound returned a DC50 on SF-1 of 2.6 nM.

In the case of `COc1ccc([C@]2(CCN(Cc3ccc(C4=CC[C@H](C(=O)N5CCC(Nc6cc7c(cc6F)n(C6CCC(=O)NC6=O)c(=O)n7C)CC5)CC4)cc3)CC(C)(C)C(F)(F)F)CCOC(C)(C)C2)cc1` (stereo partly drawn) [BT6, 3-{6-Fluoro-5-[(1-{[(4R)-4′-{[{2-[(4R)-4-(4-methoxyphenyl)-2,2-dimethyltetrahydro-2H-pyran-4-yl]ethyl}(3,3,3-trifluoro-2,2-dimethylpropyl)amino]methyl}-2,3,4,5-tetrahydro[biphenyl]-4-yl]carbonyl}piperidin-4-yl)amino]-3-methyl-2-oxo-2,3-dihydro-1H-benzimidazol-1-yl}piperidine-2,6-dione], in the assay on NCI-H295R cells, the GI50 came to 48 nM. Further, it took 3.5 nM to reach half-maximal degradation on SF-1 (DC50).

`COc1ccc([C@]2(CCN(Cc3ccc(C4=CCC(CN5CCN(C(=O)c6ccc7c(n6)n(C)c(=O)n7C6CCC(=O)NC6=O)CC5)CC4)cc3)CC(C)(C)C(F)(F)F)CCOC(C)(C)C2)cc1` (stereo partly drawn) [BC6, 3-[5-({4-[(4′-{[{2-[(4R)-4-(4-Methoxyphenyl)-2,2-dimethyltetrahydro-2H-pyran-4-yl]ethyl}(3,3,3-trifluoro-2,2-dimethylpropyl)amino]methyl}-2,3,4,5-tetrahydro[biphenyl]-4-yl)methyl]piperazin-1-yl}carbonyl)-3-methyl-2-oxo-2,3-dihydro-1H-imidazo[4,5-b]pyridin-1-yl]piperidine-2,6-dione] returned a GI50 in the assay on NCI-H295R cells of 48 nM. Moreover, on SF-1, the 50% degradation concentration (DC50) was 6.2 nM.

On to `COc1ccc([C@]2(CCN(Cc3ccc(C4=CC[C@H](CN5CCN(C(=O)c6ccc7c(c6)n(C)c(=O)n7[C@H]6CCC(=O)NC6=O)CC5)CC4)cc3)CC(C)(C)C(F)(F)F)CCOC(C)(C)C2)cc1` [AP6, (3S)-3-{5-[(4-{[(4R)-4′-{[{2-[(4R)-4-(4-Methoxyphenyl)-2,2-dimethyltetrahydro-2H-pyran-4-yl]ethyl}(3,3,3-trifluoro-2,2-dimethylpropyl)amino]methyl}-2,3,4,5-tetrahydro[biphenyl]-4-yl]methyl}piperazin-1-yl)carbonyl]-3-methyl-2-oxo-2,3-dihydro-1H-benzimidazol-1-yl}piperidine-2,6-dione], for which it took 68 nM to inhibit growth in the assay on NCI-H295R cells by half (GI50). On SF-1, this compound registered a half-maximal degradation concentration (DC50) of 4.1 nM.

Turning to `COc1ccc([C@]2(CCN(Cc3ccc(C4=CCC(CN5CCN(C(=O)c6ccc7c(c6)n(C)c(=O)n7C6CCC(=O)NC6=O)CC5)CC4)cc3)CC3(C(F)(F)F)CCC3)CCOC(C)(C)C2)cc1` (stereo partly drawn) [AR7, 3-(5-{[4-({4′-[({2-[(4R)-4-(4-Methoxyphenyl)-2,2-dimethyltetrahydro-2H-pyran-4-yl]ethyl}{[1-(trifluoromethyl)cyclobutyl]methyl}amino)methyl]-2,3,4,5-tetrahydro[biphenyl]-4-yl}methyl)piperazin-1-yl]carbonyl}-3-methyl-2-oxo-2,3-dihydro-1H-benzimidazol-1-yl)piperidine-2,6-dione], halving of growth in the assay with NCI-H295R cells (GI50) required 82 nM. On SF-1, this compound displayed a DC50 of 6.5 nM.

Turning to `COc1ccc(C2(CCN(Cc3ccc(OC4CCN(CC(=O)Nc5cccc6c5n(C)c(=O)n6C5CCC(=O)NC5=O)CC4)cc3)CC(C)(C)C(F)(F)F)CCC(F)(F)CC2)cc1` (stereo not drawn) [Example AB6, 2-[4-(4-{[{2-[4,4-Difluoro-1-(4-methoxyphenyl)cyclohexyl]ethyl}(3,3,3-trifluoro-2,2-dimethylpropyl)amino]methyl}phenoxy)piperidin-1-yl]-N-[1-(2,6-dioxopiperidin-3-yl)-3-methyl-2-oxo-2,3-dihydro-1H-benzimidazol-4-yl]acetamide], the GI50 with NCI-H295R cells is 165 nM. Also, the half-maximal degradation concentration (DC50) at SF-1 amounted to 29 nM.
